Source: patent publication US5767128A, “1,3-dihydro-2H-pyrrolo[2,3-b]pyridin-2-one compounds” (Adir et Compagnie, priority 1994, dated 1998)
Read-outs that look alike come from different tables or passages of the source.

Key:
[1] = test system: cramps induced in the mouse by phenylbenzoquinone; assay: Cramps induced with phenylbenzoquinone (SIEGMUND test), analgesic activity, per os; type: in vivo, mouse (male CD-1); details: po, read-out: PBO Whrithing, % inhibition (% decrease in the number of cramps compared with the control animals)
Description: 2) Cramps induced with phenylbenzoquinone
Male CD-1 mice randomly divided into groups of 5 receive the test products per os 30 minutes before the intraperitoneal injection of 0.25 cm3 of a 0.01% solution of phenylbenzoquinone in a 95:5 mixture of water and ethanol.
The number of cramps is counted between the 5th and the 15th minute after the injection of phenylbenzoquinone.
(§1) The percentage activity was evaluated for each compound (% decrease in the number of cramps in the treated animals compared with the control animals).

[2] = test system: abdominal cramps induced in the rat by acetic acid; assay: Cramps induced with acetic acid (KOSTER test), analgesic activity, per os; type: in vivo, rat (male Wistar); details: po, read-out: Acetic Acid Writhing, % inhibition (% decrease in the number of cramps compared with the control animals)
Description: 1) Cramps induced with acetic acid
Male Wistar rats randomly divided into groups of 5 (weight 150±10 g) receive the test products per os 30 minutes before the intraperitoneal injection of 1 cm^3 of 1% acetic acid.
The number of cramps is counted during the 25 minutes which follow the injection.
as §1

[3] = mouse, 50 mg/kg per os, 30 minutes before phenylbenzoquinone, count 5th to 15th minute
[4] = rat, 50 mg/kg per os, 30 minutes before acetic acid, 25 minutes count

SMILES: CC(=O)Oc1ccccc1C(=O)O [Aspirin, reference compound]
- inhibition at 50 mg/kg ([1]; Mus musculus): 62%
- inhibition at 50 mg/kg ([2]; Rattus norvegicus): 56%

SMILES: Cn1c(=O)oc2cc(C(=O)c3ccccc3)cnc21 [Example 5, 3-METHYL-6-BENZOYLOXAZOLO[4,5-b]PYRIDIN-2(3-ONE]
- inhibition at 50 mg/kg [1, 3]: 85%
- inhibition at 50 mg/kg [2, 4]: 85%

SMILES: O=C(c1ccccc1)c1cnc2[nH]c(=O)oc2c1 [Example 6, 6-BENZOYLOXAZOLO[4,5-b]PYRIDIN-2(3H)-ONE]
- inhibition at 50 mg/kg [2, 4]: 88%

SMILES: CC(=O)c1cnc2c(c1)CC(=O)N2C [Example 13, 1,3-DIHYDRO-1-METHYL-5-ACETYL-2H-PYRROLO[2,3-b]PYRIDIN-2-ONE]
- inhibition at 50 mg/kg [2, 4]: 96%

SMILES: Cn1c(=O)oc2cc(CN3CCN(c4ccccc4)CC3)cnc21 [Example 16, 3-METHYL-6-[(4-PHENYLPIPERAZIN-1-YL)METHYL]OXAZOLO[4,5-b]PYRIDIN-2(3H)-ONE]
- inhibition at 50 mg/kg [1, 3]: 57%
- inhibition at 50 mg/kg [2, 4]: 98%

SMILES: Cn1c(=O)oc2cc(CCCN3CCN(c4ccccc4)CC3)cnc21 [Example 20, 3-METHYL-6-[3-(4-PHENYLPIPERAZIN-1-YL)PROP-1-YL]OXAZOLO[4,5-b]PYRIDIN-2(3H)-ONE]
- inhibition at 50 mg/kg [1, 3]: 100%

SMILES: Cn1c(=O)oc2cc(C(=O)CN3CCN(c4ccccc4)CC3)cnc21 [Example 22, 3-METHYL-6-[2-(4-PHENYLPIPERAZIN-1-YL)ACETYL]OXAZOLO[4,5-b]PYRIDIN-2(3H)-ONE]
- inhibition at 50 mg/kg [1, 3]: 53%
- inhibition at 50 mg/kg [2, 4]: 97%

SMILES: Cn1c(=O)oc2cc(C(O)CN3CCN(c4ccccc4)CC3)cnc21 (stereo not drawn) [Example 24, 3-METHYL-6-[2-(4-PHENYLPIPERAZIN-1-YL)-1-HYDROXYETHYL]OXAZOLO[4,5-b]PYRIDIN-2(3H)-ONE]
- inhibition at 50 mg/kg [1, 3]: 97%
- inhibition at 50 mg/kg [2, 4]: 86%

SMILES: CN1C(=O)Cc2cc(CN3CCN(c4ccccc4)CC3)cnc21 [Example 46, 1,3-DIHYDRO-5-(4-PHENYLPIPERAZIN-1-YLMETHYL)-1-METHYL-2H-PYRROLO[2,3-b]PYRIDIN-2-ONE]
- inhibition at 50 mg/kg [1, 3]: 67%

SMILES: CN1C(=O)Cc2cc(C(=O)CN3CCN(c4ccccc4)CC3)cnc21 [Example 47, 1,3-DIHYDRO-5-[2-(4-PHENYLPIPERAZIN-1-YL)ACETYL)-1-METHYL-2H-PYRROLO[2,3-b]PYRIDIN-2-ONE]
- inhibition at 50 mg/kg [1, 3]: 90%
